# Data as given in patent publication US20180282323A1, “Mesoionic imidazole derivatives as insecticides” (BAYER CROPSCIENCE AKTIENGESELLSCHAFT, priority 2015, published 2018).
# Read-outs that look alike come from different tables or passages of the source.
# Key:
# Myzus persicae = Myzus persicae oral test; assay type: in vivo; settings: application rate 20 ppm, oral uptake through parafilm, after 5 days; for pest or weed control at 20 ppm: Myzus persicae, 120 h, read-out: efficacy
# Protocol: Myzus persicae—Oral Test Solvent: 100 parts by weight of acetone
# To produce an appropriate active ingredient formulation, 1 part by weight of active ingredient is dissolved with the stated parts by weight of solvent and made up with water until the desired concentration is attained.
# 50 μl of the active ingredient formulation are transferred into microtitre plates and made up to a final volume of 200 μl with 150 μl of IPL41 insect medium (33%+15% sugar). Subsequently, the plates are sealed with parafilm, which a mixed population of green peach aphids (Myzus persicae) within a second microtitre plate is able to puncture and imbibe the solution through it.
# After 5 days, the efficacy in % is determined. 100% means that all the aphids have been killed; 0% means that no aphids have been killed.
# [1] = log P by HPLC on reversed-phase column (EEC directive 79/831 Annex V.A8); assay type: physicochemical; settings: for log p a): HPLC on reversed-phase column
# Protocol: a) The determination of the [M+H]^+ by LC-MS in the acidic range was effected at pH 2.7, with acetonitrile (containing 0.1% formic acid) and water as eluents; linear gradient from 10% acetonitrile to 95% acetonitrile, instrument: Agilent 1100 LC system, Agilent MSD system, HTS PAL.
# The log P values reported in the tables and preparation examples above were determined in accordance with EEC directive 79/831 Annex V.A8 by HPLC (High Performance Liquid Chromatography) using a reversed-phase column (C18). Temperature 43° C.
# [2] = HPLC on reversed-phase column (footnote a)
# [3] = reversed-phase C18 HPLC column, pH 2.7, HPLC on reversed-phase column (footnote a), read-out: log p
# [4] = reversed-phase C18 HPLC column, HPLC-MS, reversed-phase C18, 43° C., calibration with alkan-2-ones, read-out: log P
Compound,efficacy (Myzus persicae),"log p [1, 2]",log p a) [1],further results
COCC(=O)c1c([O-])n(Cc2ccc(Cl)nc2)c2cccc(C)[n+]12 [Example I-1-166],100%,1.33,–,–
CC(c1ccc(Cl)nc1)n1c([O-])c(C(=O)Nc2c(F)cccc2F)[n+]2ccccc12 (centres unmarked) [Example I-1-272],100%,–,2.46,–
O=C(NC1CC1)c1c([O-])n(Cc2ccc(C(F)(F)F)nc2)c2cccc[n+]12 [Example I-1-200],90%,–,1.87,–
COC(=O)c1c([O-])n(Cc2cnc(Cl)s2)c2cccc(Cl)[n+]12 [Example I-1-121],100%,1.32,–,–
COCC(=O)c1c([O-])n(Cc2cnc(Cl)s2)c2ccc(Cl)c[n+]12 [Example I-1-118],100%,1.69,–,–
Cc1ccc2n(Cc3cnc(Cl)s3)c([O-])c(C(=O)CCl)[n+]2c1 [Example I-1-125],90%,1.99,–,–
CCNC(=O)c1c([O-])n(Cc2cnc(C)cn2)c2cccc[n+]12 [Example I-1-244],90%,–,1.07,–
O=C(COc1ccc(F)cc1)c1c([O-])n(Cc2ccc(Cl)nc2)c2cccc[n+]12 [Example I-1-031],100%,2.27,–,–
Cc1ccc[n+]2c(C(=O)NC3CC3)c([O-])n(Cc3ccc(F)nc3)c12 [Example I-1-222],100%,–,1.58,–
Cc1ccc[n+]2c(C(=O)NC3CC3)c([O-])n(Cc3ccc(Cl)nc3)c12 [Example I-1-181],100%,1.75,–,–
O=C(CNCc1ccccc1)c1c([O-])n(Cc2cnc(Cl)s2)c2cccc[n+]12 [Example I-1-053],90%,1,–,–
Cc1ccc[n+]2c(C(=O)Cn3cncn3)c([O-])n(Cc3cnc(Cl)s3)c12 [Example I-1-096],100%,1.31,–,–
CC(NC(=O)c1c([O-])n(Cc2cnc(Cl)s2)c2cccc[n+]12)c1ccc(Cl)cc1 (centres unmarked) [Example I-1-142],100%,3.13,–,–
O=C(CCl)c1c([O-])n(Cc2cnc(Cl)s2)c2scc[n+]12 [Example I-5-002],100%,–,–,"log p^a) ([1]; Table 3; HPLC reversed-phase C18, 43° C.; footnote a) acidic range pH 2.7): 1.46"
CC(c1cnc(Cl)s1)n1c([O-])c(C(=O)NC2(C#N)CC2)[n+]2ccccc12 (centres unmarked) [Example I-1-289],100%,–,1.86,–
COC(=O)COCC(=O)c1c([O-])n(Cc2cnc(Cl)s2)c2cccc[n+]12 [Example I-1-075],100%,1.41,–,–
N#Cc1cnn(CC(=O)c2c([O-])n(Cc3ccc(Cl)nc3)c3cccc[n+]23)c1 [Example I-1-060],100%,1.55,–,–
COC(=O)c1c([O-])n(Cc2cnc(C)cn2)c2cccc[n+]12 [Example I-1-215],100%,–,0.80,–
O=C(NCC(F)(F)F)c1c([O-])n(Cc2ccc(Cl)nc2)c2cccc[n+]12 [Example I-1-312],100%,–,1.98,–
COCC(=O)c1c([O-])n(Cc2ccc(C(F)(F)F)nc2)c2cccc[n+]12 [Example I-1-180],100%,1.49,–,–
CCOCC(=O)c1c([O-])n(C(C)c2ccc(Cl)nc2)c2cccc[n+]12 (centres unmarked) [Example I-1-186],100%,1.58,–,–
Cc1cccc2n(Cc3ccc(Cl)nc3)c([O-])c(C(=O)NC3CC3)[n+]12 [Example I-1-171],100%,1.05,–,–
"CCN(CC(=O)c1c([O-])n(Cc2cnc(Cl)s2)c2cccc[n+]12)C(C)=O [Example I-1-040, 3-(N-Acetyl-N-ethylglycyl)-1-[(2-chloro-1,3-thiazol-5-yl)methyl]-1H-imidazo[1,2-a]pyridin-4-ium-2-olate]",–,–,–,"pest or weed control at 20 ppm (Myzus persicae): 100%; chromatographic logP [1, 3]: 1.49; chromatographic logP [1, 4]: 1.49"
Cc1ccc[n+]2c(C(=O)Nc3c(F)cccc3F)c([O-])n(C(C)c3ccc(Cl)nc3)c12 (racemic) [Example I-1-275],100%,–,2.67,–
COC(=O)c1c([O-])n(Cc2ccc(Cl)nc2)c2cccc(C)[n+]12 [Example I-1-157],100%,1.27,–,–
COC(=O)c1c([O-])n(Cc2ccc(Cl)nc2)c2c(C)ccc[n+]12 [Example I-1-160],100%,1.39,–,–

Compound,efficacy (Myzus persicae),"log p [1, 2]",log p a) [1],further results
CNC(=O)c1c([O-])n(Cc2cnc(C)cn2)c2cccc[n+]12 [Example I-1-245],90%,–,0.76,–
O=C(NC1CC1)c1c([O-])n(Cc2cnc(Cl)c(Cl)c2)c2cccc[n+]12 [Example I-1-201],100%,–,2.08,–
Cc1ccc[n+]2c(C(=O)Nc3ccc(F)cc3)c([O-])n(Cc3ccc(Cl)nc3)c12 [Example I-1-219],100%,–,2.9,–
COCC(=O)c1c([O-])n(Cc2cnc(Cl)s2)c2ccc(C)c[n+]12 [Example I-1-174],100%,1.52,–,–
COC(=O)c1c([O-])n(Cc2cnc(Cl)s2)c2c(C)ccc[n+]12 [Example I-1-206],100%,–,1.46,–
COC(=O)c1c([O-])n(Cc2cncc(Cl)c2)c2cccc[n+]12 [Example I-1-158],100%,1.15,–,–
O=C(CCl)c1c([O-])n(Cc2cnc(Cl)s2)c2cccc[n+]12 [Example I-1-209],100%,–,1.24,–
O=C(Cn1ccc(Cl)n1)c1c([O-])n(Cc2cnc(Cl)s2)c2cccc[n+]12 [Example I-1-011],100%,2.03,–,–
CCOCC(=O)c1c([O-])n(Cc2ccc(Cl)nc2)c2cc(C(F)(F)F)cc[n+]12 [Example I-1-079],90%,2.17,–,–
N#Cc1ccc[n+]2c(C(=O)CCl)c([O-])n(Cc3ccc(Cl)nc3)c12 [Example I-1-172],90%,1.78,–,–
"COC(=O)c1c([O-])n(Cc2ccc(Cl)nc2)c2nccc[n+]12 [Example I-4-001, 1-[(6-Chloropyridin-3-yl)methyl]-3-(methoxycarbonyl)-1H-imidazo[1,2-a]pyrimidin-4-ium-2-olate]",–,–,–,pest or weed control at 20 ppm (Myzus persicae): 100%; chromatographic logP [1]: 1.15; chromatographic logP ([1]; pH 2.7): 1.15
O=C(Nc1ccccc1F)c1c([O-])n(Cc2cnc(Cl)s2)c2cccc[n+]12 [Example I-1-286],100%,–,2.95,–
COc1cccc(NC(=O)c2c([O-])n(Cc3ccc(Cl)nc3)c3cccc[n+]23)c1 [Example I-1-299],100%,–,2.55,–
CCOCC(=O)c1c([O-])n(Cc2cnc(Cl)s2)c2ccc(C)c[n+]12 [Example I-1-175],100%,1.78,–,–
CC(C)NC(=O)c1c([O-])n(Cc2cnc(Cl)s2)c2cccc[n+]12 [Example I-1-131],100%,1.95,–,–
"CCS(=O)(=O)CC(=O)c1c([O-])n(Cc2cnc(Cl)s2)c2cccc[n+]12 [Example I-1-042, 1-[(2-chloro-1,3-thiazol-5-yl)methyl]-3-[(ethylsulphonyl)acetyl]-1H-imidazo[1,2-a]pyridin-4-ium-2-olate]",–,–,–,"pest or weed control at 20 ppm (Myzus persicae): 100%; chromatographic logP [1, 3]: 1.38; chromatographic logP [1, 4]: 1.38"
O=C(Nc1ncccc1F)c1c([O-])n(Cc2ccc(Cl)nc2)c2cccc[n+]12 [Example I-1-317],100%,–,1.49,–
Cc1ccc[n+]2c(C(=O)Cn3cccn3)c([O-])n(Cc3cnc(Cl)s3)c12 [Example I-1-251],100%,–,1.69,–
CCOCC(=O)c1c([O-])n(Cc2cnc(Cl)s2)c2ccc(Cl)c[n+]12 [Example I-1-119],100%,1.96,–,–
O=C(COc1ccccn1)c1c([O-])n(Cc2cnc(Cl)s2)c2cccc[n+]12 [Example I-1-088],100%,1.32,–,–
O=C(COc1cccnc1)c1c([O-])n(Cc2cnc(Cl)s2)c2cccc[n+]12 [Example I-1-018],100%,1,–,–
CCOCC(=O)c1c([O-])n(Cc2cnc(Cl)c(Cl)c2)c2cccc[n+]12 [Example I-1-192],100%,1.93,–,–
COC(=O)c1c([O-])n(Cc2cnc(Cl)c(Cl)c2)c2cccc[n+]12 [Example I-1-199],100%,–,1.66,–
CCNC(=O)c1c([O-])n(C(C)c2ccc(Cl)nc2)c2cccc[n+]12 (centres unmarked) [Example I-1-228],100%,–,1.72,–
O=C(COc1ccc(Cl)nc1)c1c([O-])n(Cc2cnc(Cl)s2)c2cccc[n+]12 [Example I-1-084],100%,2.17,–,–
O=C(Nc1ccc(Cl)nc1)c1c([O-])n(Cc2cnc(Cl)s2)c2cccc[n+]12 [Example I-1-146],100%,2.55,–,–
